Reference: paper PMC10288505, “Photoswitchable Calixarene Activators for Controlled Peptide Transport across Lipid Membranes” (Journal of the American Chemical Society, 2023)

Tested on: hexaarginine (R6)
Assay: Indicator displacement assay with host:LCG reporter pair, guest R6
Type: binding
Conditions: association constant, competitive dye displacement with LCG, 5 mM phosphate buffer pH 7.3; only the lower limit can be estimated
Text: The binding affinity of the anionic calixarene activators toward cationic peptides was investigated using a small library of highly hydrophilic oligoarginines, from 3 to 8 residues. These peptides are not able to spontaneously transverse zwitterionic artificial membranes in vesicle assays, which allows the accurate evaluation of the calixarenes 1 and 2 as counterion activators without interferences from the transport of the peptide alone.[43]−[45] First, the formation of host–guest complexes between 1/2 and the selected peptides was verified by indicator displacement assays using lucigenin (LCG) as the fluorescent indicator.[46] As previously reported for other sulfonatocalixarene derivatives,[46] the formation of host–guest binding pairs between calixarenes 1/2 in the E- and Z-forms and LCG results in significant static fluorescence quenching (see Figure 2A and Figures S26 and S27). Quantitative analysis of the fluorescence titration data using a 1:1 host:guest binding model allows the determination of the respective binding constants (K) reported in Table 1. As can be observed, both 1/2 display high affinity for the LCG dye, on the 10^7 M^–1 range, which seems to be independent of the nature and conformation of the azobenzene arm. […] The host:LCG binding pairs were then employed in the above-mentioned indicator displacement assays to investigate the binding affinity of oligoarginines toward 1 and 2 (see Figure 2B and Figures S29–S33).
Figure 2 (A) Fluorescence titration of the lucigenin dye (LCG, 1.5 μM) with increasing concentrations of E-2 in water (5 mM phosphate buffer, pH 7.3). […]
The binding affinities of the counterion activators and peptide complexes were analyzed by indicator displacement assays. […] Firstly, the affinity for LCG was calculated for each of the activators, by titrations followed by fluorescence spectroscopy leading to almost full quenching of the emission. […]
Figure S26 - Fluorescence titration of the lucigenin dye with increasing concentrations of A) E-1 and B) Z–1 in water (5 mM phosphate buffer pH 7.3). […]

SMILES | Apparent affinity constant K for R6
O=S(=O)([O-])c1cc2c(O)c(c1)Cc1cc(S(=O)(=O)[O-])cc(c1O)Cc1cc(S(=O)(=O)[O-])cc(c1OCCCCCCOc1ccc(/N=N/c3ccccc3)cc1)Cc1cc(S(=O)(=O)[O-])cc(c1O)C2.[Li+].[Li+].[Li+].[Li+] [E-1] | >5 × 10^8 ^a M^–1
CCCCc1ccc(/N=N/c2ccc(OCCCOc3c4cc(S(=O)(=O)[O-])cc3Cc3cc(S(=O)(=O)[O-])cc(c3O)Cc3cc(S(=O)(=O)[O-])cc(c3O)Cc3cc(S(=O)(=O)[O-])cc(c3O)C4)cc2)cc1.[Li+].[Li+].[Li+].[Li+] [E-2] | >5 × 10^8 ^a M^–1
